Our source for the MIC values is patent publication US4226863A, “7-Methoxy cephalosporins” (Sumitomo Chemical Company, Limited, priority 1975, dated 1980).

Common to all, as to format: cell-based
One assay has as its system Escherichia coli NIHJ. The experiment in a line: antimicrobial activity, minimum inhibitory concentration, Escherichia coli NIHJ.
The next assay relates to Proteus vulgaris HX 19. Nature of the assay: antimicrobial activity, minimum inhibitory concentration, Proteus vulgaris HX 19. As to conditions: HX19. The method, then:
(§1) The antimicrobial activities of the compounds prepared in the previous Examples were determined in a usual manner and the minimum inhibitory concentrations (in terms of μg/ml) are set forth in the Table below.

Assay [1] relates to Pseudomonas aeruginosa IID 5142. The experiment in a line: antimicrobial activity, minimum inhibitory concentration, Pseudomonas aeruginosa IID 5142. Particulars: IID5142. As to the method: as §1
The subject of another assay is Serratia No. 115. The experiment in a line: antimicrobial activity, minimum inhibitory concentration, Serratia No. 115. The method, then:
as §1

Assay [2] concerns Enterobacter aerogenes No. 101. The experiment in a line: antimicrobial activity, minimum inhibitory concentration, Enterobacter aerogenes No. 101. As to conditions: Klebsiella aerogenes. As to the method: as §1

SMILES strings stand for the structures. Values after ≈ are worked out from the molar mass of the structure shown.

Broadly, the MIC is the lowest concentration found to suppress growth. Low readings indicate a more susceptible organism, high ones a less susceptible organism. Regarding `COC1(NC(=O)C(NC(=O)c2cnc3cccnc3c2O)C2=CCC=CC2)C(=O)N2C(C(=O)O)=C(CSc3nnc(C)s3)CSC21` (centres unmarked) [Example 32], the MIC against Escherichia coli NIHJ stood at 3.13 µg/mL (≈ 4.59 µM); in the assay on Proteus vulgaris HX 19, 0.39 µg/mL (≈ 0.572 µM); in assay [1], 3.13 µg/mL (≈ 4.59 µM); in the assay on Serratia No. 115, 25 µg/mL (≈ 36.7 µM); in assay [2], 6.25 µg/mL (≈ 9.17 µM).
With `COC1(NC(=O)C(NC(=O)c2cnc3cccnc3c2O)c2ccc(O)cc2)C(=O)N2C(C(=O)O)=C(CSc3ccc4nnnn4n3)CSC21` (centres unmarked) [Example 47], the MIC against Escherichia coli NIHJ was 3.13 µg/mL (≈ 4.37 µM); in the assay with Proteus vulgaris HX 19 it was 0.39 µg/mL (≈ 0.544 µM); in assay [1], 6.25 µg/mL (≈ 8.72 µM); in the assay on Serratia No. 115, 12.5 µg/mL (≈ 17.4 µM); in assay [2], 6.25 µg/mL (≈ 8.72 µM).
In the case of `COC1(NC(=O)C(NC(=O)c2cnc3sccc3c2O)c2ccc(O)cc2)C(=O)N2C(C(=O)O)=C(CSc3nnnn3C)CSC21` (centres unmarked) [Example 29], the MIC in the assay with Escherichia coli NIHJ was 12.5 µg/mL (≈ 18.3 µM); in the assay with Proteus vulgaris HX 19, 0.78 µg/mL (≈ 1.14 µM); in assay [1] it was 6.25 µg/mL (≈ 9.13 µM); against Serratia No. 115 it was 12.5 µg/mL (≈ 18.3 µM); in assay [2], 12.5 µg/mL (≈ 18.3 µM).
`COC1(NC(=O)C(NC(=O)c2cnc3cccnc3c2O)c2cccs2)C(=O)N2C(C(=O)O)=C(COC(N)=O)CSC21` (centres unmarked) [Example 48]: the MIC against Escherichia coli NIHJ is 3.13 µg/mL (≈ 5.09 µM); against Proteus vulgaris HX 19 it was 0.39 µg/mL (≈ 0.635 µM); in assay [1], 3.13 µg/mL (≈ 5.09 µM); with Serratia No. 115, 25 µg/mL (≈ 40.7 µM); in assay [2], 6.25 µg/mL (≈ 10.2 µM).
